Test results reported in PubChem BioAssay AID1259407 (Chemical Carcinogenesis Research Information System (CCRIS), 2018).
Activity calls are given as the source filed them. How the calls were made is not given here.

Tested on: CCRIS mutagenicity, Ames/micronucleus/aberration tests
Assay: CCRIS mutagenicity studies
[1] = Test System: AMES SALMONELLA TYPHIMURIUM, Strain/Indicator: TA98, Metabolic Activation: NONE, Method: PREINCUBATION
[2] = Test System: AMES SALMONELLA TYPHIMURIUM, Strain/Indicator: TA100, Metabolic Activation: NONE, Method: PREINCUBATION
[3] = Test System: AMES SALMONELLA TYPHIMURIUM, Strain/Indicator: TA98, Metabolic Activation: NONE, Method: STANDARD PLATE
[4] = Test System: AMES SALMONELLA TYPHIMURIUM, Strain/Indicator: TA100, Metabolic Activation: NONE, Method: STANDARD PLATE

## CC(=O)Nc1ccc(S(=O)(=O)Cl)cc1
[1]
  mutagenic call: inactive; negative
Test System: AMES SALMONELLA TYPHIMURIUM, Strain/Indicator: TA98, Metabolic Activation: RAT LIVER S-9, PHENOBARBITAL AND BETA-NAPHTHOFLAVONE, Method: PREINCUBATION
  mutagenic call: inactive; negative
[2]
  mutagenic call: inactive; negative
Test System: AMES SALMONELLA TYPHIMURIUM, Strain/Indicator: TA100, Metabolic Activation: RAT LIVER S-9, PHENOBARBITAL AND BETA-NAPHTHOFLAVONE, Method: PREINCUBATION
  mutagenic call: inactive; negative
Test System: AMES SALMONELLA TYPHIMURIUM, Strain/Indicator: TA102, Metabolic Activation: NONE, Method: PREINCUBATION
  mutagenic call: inactive; negative
Test System: AMES SALMONELLA TYPHIMURIUM, Strain/Indicator: TA102, Metabolic Activation: RAT LIVER S-9, PHENOBARBITAL AND BETA-NAPHTHOFLAVONE, Method: PREINCUBATION
  mutagenic call: inactive; negative
Test System: AMES SALMONELLA TYPHIMURIUM, Strain/Indicator: TA104, Metabolic Activation: NONE, Method: PREINCUBATION
  mutagenic call: inactive; negative
Test System: AMES SALMONELLA TYPHIMURIUM, Strain/Indicator: TA104, Metabolic Activation: RAT LIVER S-9, PHENOBARBITAL AND BETA-NAPHTHOFLAVONE, Method: PREINCUBATION
  mutagenic call: inactive; negative
Test System: AMES SALMONELLA TYPHIMURIUM, Strain/Indicator: TA1535, Metabolic Activation: NONE, Method: PREINCUBATION
  mutagenic call: inactive; negative
Test System: AMES SALMONELLA TYPHIMURIUM, Strain/Indicator: TA1535, Metabolic Activation: RAT LIVER S-9, PHENOBARBITAL AND BETA-NAPHTHOFLAVONE, Method: PREINCUBATION
  mutagenic call: inactive; negative
Test System: AMES SALMONELLA TYPHIMURIUM, Strain/Indicator: TA1537, Metabolic Activation: NONE, Method: PREINCUBATION
  mutagenic call: inactive; negative
Test System: AMES SALMONELLA TYPHIMURIUM, Strain/Indicator: TA1537, Metabolic Activation: RAT LIVER S-9, PHENOBARBITAL AND BETA-NAPHTHOFLAVONE, Method: PREINCUBATION
  mutagenic call: inactive; negative
Test System: E.COLI, Strain/Indicator: WP2UVRA/PKM101, Metabolic Activation: NONE, Method: PREINCUBATION
  mutagenic call: inactive; negative
Test System: E.COLI, Strain/Indicator: WP2UVRA/PKM101, Metabolic Activation: RAT LIVER S-9, PHENOBARBITAL AND BETA-NAPHTHOFLAVONE, Method: PREINCUBATION
  mutagenic call: inactive; negative
Test System: E.COLI, Strain/Indicator: WP2UVRA, Metabolic Activation: NONE, Method: PREINCUBATION
  mutagenic call: inactive; negative
Test System: E.COLI, Strain/Indicator: WP2UVRA, Metabolic Activation: RAT LIVER S-9, PHENOBARBITAL AND BETA-NAPHTHOFLAVONE, Method: PREINCUBATION
  mutagenic call: inactive; negative

## O=C1C(c2[nH]c3ccccc3c2O)=Nc2ccccc21
[3]
  mutagenic call: inactive; negative
Test System: AMES SALMONELLA TYPHIMURIUM, Strain/Indicator: TA98, Metabolic Activation: RAT, LIVER, S-9, AROCLOR 1254, Method: STANDARD PLATE
  mutagenic call: active; positive
[4]
  mutagenic call: inactive; negative
Test System: AMES SALMONELLA TYPHIMURIUM, Strain/Indicator: TA100, Metabolic Activation: RAT, LIVER, S-9, AROCLOR 1254, Method: STANDARD PLATE
  mutagenic call: inactive; negative

## [Br][Pt-2]([Br])([Br])([Br])([Br])[Br]
[1]
  mutagenic call: inactive; negative
Test System: AMES SALMONELLA TYPHIMURIUM, Strain/Indicator: TA98, Metabolic Activation: RAT, LIVER, S-9, AROCLOR 1254, Method: PREINCUBATION
  mutagenic call: inactive; negative
[2]
  mutagenic call: inactive; negative
Test System: AMES SALMONELLA TYPHIMURIUM, Strain/Indicator: TA100, Metabolic Activation: RAT, LIVER, S-9, AROCLOR 1254, Method: PREINCUBATION
  mutagenic call: inactive; negative

## O=c1c(-c2ccc(O)cc2)coc2cc(O)cc(O)c12
End Point: IN VITRO CHROMOSOMAL ABERRATIONS, Test System: HUMAN PERIPHERAL LYMPHOCYTES, Metabolic Activation: NONE
  mutagenic call: active; positive (structural changes)
End Point: IN VITRO MICRONUCLEUS, Test System: CHINESE HAMSTER V79 CELLS, Metabolic Activation: NONE
  mutagenic call: active; positive
End Point: IN VITRO MICRONUCLEUS, Test System: MOUSE LYMPHOMA L5178Y CELLS, Metabolic Activation: NONE
  mutagenic call: active; positive
End Point: IN VIVO CHROMOSOMAL ABERRATIONS, Test System: MAMMARY GLAND CELLS, USING DUAL PROBE FISH, Species: RAT, Strain/Sex: SPRAGUE-DAWLEY/FEMALE, Route: DIET
  mutagenic call: inactive; negative
End Point: IN VIVO MICRONUCLEUS, Test System: MAMMARY GLAND CELLS, Species: RAT, Strain/Sex: SPRAGUE-DAWLEY/FEMALE, Route: DIET
  mutagenic call: inactive; negative
End Point: MORPHOLOGICAL TRANSFORMATION, Test System: SYRIAN HAMSTER EMBRYO CELLS (SHE), Metabolic Activation: NONE
  mutagenic call: inactive; negative
Test System: CHINESE HAMSTER V-79, Strain/Indicator: V-79 (HPRT)/6-THIOGUANINE, Metabolic Activation: NONE
  mutagenic call: active; positive
Test System: MOUSE LYMPHOMA, Strain/Indicator: L5178Y TK+/-, Metabolic Activation: NONE
  mutagenic call: active; positive (above 90 umol/l)
Test System: MOUSE LYMPHOMA, Strain/Indicator: L5178Y TK+/-, Metabolic Activation: S-9
  mutagenic call: active; positive
Test System: SYRIAN HAMSTER EMBRYO CELLS, Strain/Indicator: HPRT/6-THIOGUANINE, Metabolic Activation: NONE, Method: PLATE
  mutagenic call: active; positive

## CCc1cc(C(C)(C)C)c(O)c(C(C)(C)C)c1
Test System: AMES SALMONELLA TYPHIMURIUM, Strain/Indicator: TA97, Metabolic Activation: NONE, Method: STANDARD PLATE
  mutagenic call: inactive; negative
Test System: AMES SALMONELLA TYPHIMURIUM, Strain/Indicator: TA97, Metabolic Activation: S-9, Method: STANDARD PLATE
  mutagenic call: inactive; negative
[3]
  mutagenic call: inactive; negative
Test System: AMES SALMONELLA TYPHIMURIUM, Strain/Indicator: TA98, Metabolic Activation: S-9, Method: STANDARD PLATE
  mutagenic call: inactive; negative
[4]
  mutagenic call: inactive; negative
Test System: AMES SALMONELLA TYPHIMURIUM, Strain/Indicator: TA100, Metabolic Activation: S-9, Method: STANDARD PLATE
  mutagenic call: inactive; negative
Test System: AMES SALMONELLA TYPHIMURIUM, Strain/Indicator: TA102, Metabolic Activation: NONE, Method: STANDARD PLATE
  mutagenic call: inactive; negative
Test System: AMES SALMONELLA TYPHIMURIUM, Strain/Indicator: TA102, Metabolic Activation: S-9, Method: STANDARD PLATE
  mutagenic call: inactive; negative
Test System: E.COLI, Strain/Indicator: WP2 (PKM101), Metabolic Activation: NONE, Method: STANDARD PLATE
  mutagenic call: inactive; negative
Test System: E.COLI, Strain/Indicator: WP2 (PKM101), Metabolic Activation: S-9, Method: STANDARD PLATE
  mutagenic call: inactive; negative
